{"source": "patent US8551721B2", "about": "“Bioluminescent detection of cyanohydroxy benzothiazole compounds” (Promega Corporation, priority 2008, dated 2013)", "key": {"UGT isozymes": {"tested_on": "UGT isozymes", "settings": "cited from earlier work; for Isozymes Modulated: isozymes currently reported in the literature to be modulated by the compound"}, "GST A1-1": {"target": "T1, GST A1-1 (Homo sapiens, UniProt P08263)", "T1 sequence (P08263 1-222)": "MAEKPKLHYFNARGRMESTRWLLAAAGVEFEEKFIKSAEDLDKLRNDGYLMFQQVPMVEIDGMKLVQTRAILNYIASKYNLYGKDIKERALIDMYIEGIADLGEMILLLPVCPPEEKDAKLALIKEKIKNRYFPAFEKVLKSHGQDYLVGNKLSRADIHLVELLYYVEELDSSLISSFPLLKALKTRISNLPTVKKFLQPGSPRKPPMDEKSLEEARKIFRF", "experiment": "Utilization of benzothiazole by GST A1-1", "assay_type": "biochemical", "settings": "55 minutes at room temperature; for light produced with GST A1-1 minus no enzyme, concentrated substrate: concentrated substrate solution (approximately 1 mg/mL diluted 1:100), glutathione; for light produced with GST A1-1 minus no enzyme, diluted substrate: substrate solution diluted 1:3.1, glutathione", "experimental": "(§1) A small amount of compound 934-37 was dissolved in DMSO to produce a solution approximately 1 mg/mL. This solution was diluted 1:100 (v/v) into 50 mM HEPES buffer pH 7.5 to produce a substrate solution. Twenty μL of this solution was placed in 10 wells of a 96 well white luminometer plate (Promega part Z3291), then the solution was diluted 1:3.1 and 20 μL of the dilution was placed into another 10 wells in the luminometer plate.\n(§2) D-Cysteine, 4 mg (Sigma Chemical Corp.; C8005-1 g, 017K1034) was dissolved into 1 mL of 50 mM HEPES buffer pH 7.5, then 4 μL added to 4 of the wells containing the substrate solution and 4 of the wells with diluted substrate solution to convert compound 934-37 to the corresponding luciferin derivative. The structures of these compounds are shown below.\n(§3) A sample of GST A1-1 (1.2 mg/mL) and 100 μL of 100 mM glutathione in water was diluted into 5 mL of 50 mM HEPES pH 7.5, then 25 μL added to: two of the wells with unconverted, concentrated compound 934-37; 2 wells with concentrated and converted compound 934-37; and two of the wells with unconverted, diluted compound 934-37 and 2 of the wells with converted, diluted compound 934-37.\n(§4) Glutathione (100 μL of 100 mM glutathione) had been diluted to 5 mL with 50 mM HEPES buffer pH 7.5, then 25 μL added to the remaining wells of converted and unconverted compound 934-37 in concentrated and diluted solution.\n(§5) After 55 minutes at room temperature, 4 μL of the D-cysteine solution above was added to all wells that had not received cysteine before, then 50 μL of P450 Glo Luciferin Detection Reagent (made by dissolving a vial of Promega Luciferin Detection Reagent (Promega Part #V859B) with a vial of Promega P450-Glo Buffer (Promega Part #V865B). The plate was then placed into a Glo Max luminometer (Promega Corp.) and the light read after 15 minutes of incubation. The values obtained were averaged and the average value of the light produced from the wells given no enzyme were then subtracted from the average of the light produced with enzyme."}, "GST M1-1": {"target": "T2, GST M1-1 (Homo sapiens, UniProt P09488)", "T2 sequence (P09488 1-218)": "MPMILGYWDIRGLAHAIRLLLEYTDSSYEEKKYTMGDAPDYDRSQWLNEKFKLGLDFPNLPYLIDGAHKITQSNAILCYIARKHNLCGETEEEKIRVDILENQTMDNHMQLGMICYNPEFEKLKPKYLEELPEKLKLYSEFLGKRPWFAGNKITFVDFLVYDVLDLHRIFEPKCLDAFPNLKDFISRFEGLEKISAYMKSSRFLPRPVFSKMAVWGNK", "experiment": "Utilization of benzothiazole by GST M1-1", "assay_type": "biochemical", "settings": "55 minutes at room temperature; for light produced with GST M1-1 minus no enzyme, concentrated substrate: concentrated substrate solution (approximately 1 mg/mL diluted 1:100), glutathione; for light produced with GST M1-1 minus no enzyme, diluted substrate: substrate solution diluted 1:3.1, glutathione", "experimental": "as §1, §2\nas §3, with “M1-1” for “A1-1”, “glutathione” for “glutathione in water”\nas §4, §5"}, "UGT 1A4": {"target": "T3, UGT 1A4 (Homo sapiens, UniProt P22310)", "T3 construct": "purchased BD Gentest; host or cells: insect cells (microsomes)", "T3 sequence (P22310 29-534)": "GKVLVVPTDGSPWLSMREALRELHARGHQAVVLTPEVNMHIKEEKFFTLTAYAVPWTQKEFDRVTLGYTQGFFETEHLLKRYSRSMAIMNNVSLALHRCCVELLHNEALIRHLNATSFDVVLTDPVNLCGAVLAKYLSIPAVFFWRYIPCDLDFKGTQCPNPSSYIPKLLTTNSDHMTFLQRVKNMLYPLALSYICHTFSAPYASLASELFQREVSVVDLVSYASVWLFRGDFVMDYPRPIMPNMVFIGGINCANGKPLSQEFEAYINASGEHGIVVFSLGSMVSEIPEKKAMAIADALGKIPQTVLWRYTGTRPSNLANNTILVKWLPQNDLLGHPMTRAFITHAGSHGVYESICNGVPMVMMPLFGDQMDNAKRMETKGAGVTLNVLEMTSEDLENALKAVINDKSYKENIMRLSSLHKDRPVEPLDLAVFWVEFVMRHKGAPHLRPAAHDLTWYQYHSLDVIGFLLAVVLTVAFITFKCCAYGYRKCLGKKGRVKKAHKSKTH", "experiment": "UGT activity: utilization of substrate by recombinant UGT 1A4 Supersomes", "assay_type": "biochemical", "settings": "2 hour incubation at 37° C., plus vs minus UDPGA", "experimental": "The invention includes a method of determining activity of the uridine 5′-diphospho-glucuronosyltransferase (UDP-glucuronosyltransferase, or UGT) family enzymes in vitro. Briefly, UGT enzymes from overexpressed insect microsomes (Supersomes™, BD Gentest™) or animal tissue microsomes (Xenotech, BD Gentest™) were incubated with a cyanobenzothiazole substrate of the invention and the cofactor UDP-glucuronic acid (UDPGA) at 37° C. in buffer at physiological pH containing MgCl2 and alamethicin (typically, 50 mM TES, pH 7.5, 8 mM MgCl2, 4 mM UDPGA (Sigma) and 25 μg/mL alamethicin (Sigma)). Following the UGT enzyme reaction, an equal volume of P450-Glo Luciferin Detection Reagent (Promega) containing 15-30 mM D-cysteine-HCl.H2O (Sigma) was added and the plate was mixed and incubated at room temperature, typically for 20-30 minutes. P450-Glo Luciferin Detection Reagent can be prepared by dissolving a vial of Promega Luciferin Detection Reagent (Promega Part #V859B) with a vial of Promega P450-Glo Buffer (Promega Part #V865B).\n(§6) During this incubation, the cysteine reacts with the cyanobenzathiozole substrate to yield a D-luciferin derivative. […] Therefore, activity of the UGT enzyme can be measured by analyzing the difference (lower or no output) in relative light units (RLU) of a sample in which glucuronidation occurs compared to a sample that was run under the same conditions with no added UDPGA cofactor.\nIn this example, a series of 12 recombinant UGTs expressed in insect microsomes (Supersomes™, BD Gentest™), as well as the control microsomes not expressing the UGT enzyme, were incubated with compound 3138, compound 3478, or compound 3165 as substrates, with or without the UDPGA co-factor. […]\nReactions were assembled in a white 96-well plate. […] After the incubation was completed, the plate was read on a Veritas™ luminometer (Turner BioSystems, Inc.; Sunnyvale, Calif.). […]"}, "[1]": {"tested_on": "endogenously expressed UGT isozymes in mammalian microsomes", "experiment": "Utilization of compounds by mammalian microsomes", "assay_type": "biochemical", "settings": "0.2 mg/mL microsomes, 50 μM compound, reactions run for 2 hours", "experimental": "The invention includes a method of determining activity of the uridine 5′-diphospho-glucuronosyltransferase (UDP-glucuronosyltransferase, or UGT) family enzymes in vitro. […] Following the UGT enzyme reaction, an equal volume of P450-Glo Luciferin Detection Reagent (Promega) containing 15-30 mM D-cysteine-HCl.H2O (Sigma) was added and the plate was mixed and incubated at room temperature, typically for 20-30 minutes. P450-Glo Luciferin Detection Reagent can be prepared by dissolving a vial of Promega Luciferin Detection Reagent (Promega Part #V859B) with a vial of Promega P450-Glo Buffer (Promega Part #V865B).\nas §6\nTissue microsomes were obtained from Xenotech LLC or BD Gentest."}, "human liver microsomes": {"tested_on": "human liver microsomes", "experiment": "Utilization of compound 3165 by human liver, renal and intestinal microsomes", "assay_type": "biochemical", "settings": "2 hours at 37° C., 0.2 mg/mL microsomes, 50 μM compound", "experimental": "(§7) The invention includes a method of determining activity of the uridine 5′-diphospho-glucuronosyltransferase (UDP-glucuronosyltransferase, or UGT) family enzymes in vitro. Briefly, UGT enzymes from overexpressed insect microsomes (Supersomes™, BD Gentest™) or animal tissue microsomes (Xenotech, BD Gentest™) were incubated with a cyanobenzothiazole substrate of the invention and the cofactor UDP-glucuronic acid (UDPGA) at 37° C. in buffer at physiological pH containing MgCl2 and alamethicin (typically, 50 mM TES, pH 7.5, 8 mM MgCl2, 4 mM UDPGA (Sigma) and 25 μg/mL alamethicin (Sigma)). […]\nas §6\n(§8) The ability of endogenously expressed UGT isozymes to utilize compounds 3138 and 3165 as substrates was determined in a similar manner to the assays with recombinant microsomes (Example 1). […]"}, "rat liver microsomes": {"tested_on": "rat liver microsomes", "experiment": "Utilization of compound 3165 by rat liver microsomes", "assay_type": "biochemical", "settings": "2 hours at 37° C., 0.2 mg/mL microsomes, 50 μM compound", "experimental": "as §7, §6, §8"}, "mouse liver microsomes": {"tested_on": "mouse liver microsomes", "experiment": "Utilization of compound 3165 by mouse liver microsomes", "assay_type": "biochemical", "settings": "2 hours at 37° C., 0.2 mg/mL microsomes, 50 μM compound", "experimental": "as §7, §6, §8"}}}
{"smiles": "O=c1cc(C(F)(F)F)c2ccc(O)cc2o1", "note": "[7-hydroxy-4-trifluoromethyl coumarin]", "values": [{"measurement": "Isozymes Modulated", "setting": "UGT isozymes", "result": "Substrate for 1A1, 1A3, 1A6, 1A9, 2B7"}]}
{"smiles": "C=C[C@H]1C[N@@]2CC[C@H]1C[C@@H]2[C@@H](O)c1ccnc2ccc(OC)cc12", "note": "[Quinidine]", "values": [{"measurement": "Isozymes Modulated", "setting": "UGT isozymes", "result": "2B7 and 2B15, others to a lesser extent"}]}
{"smiles": "CC(C)c1nc(CN(C)C(=O)N[C@H](C(=O)N[C@@H](Cc2ccccc2)C[C@H](O)[C@H](Cc2ccccc2)NC(=O)OCc2cncs2)C(C)C)cs1", "note": "[Ritonavir]", "values": [{"measurement": "inhibition of UGT isozymes as reported in the literature", "setting": "UGT isozymes; literature report", "result": "inhibits UGT 1A 1 and 1A4, but has little effect on UGT 2B7"}]}
{"smiles": "O=c1ccc2ccc(O)cc2o1", "note": "[Umbelliferne]", "values": [{"measurement": "Isozymes Modulated", "setting": "UGT isozymes", "result": "Substrate of most isozymes"}]}
{"smiles": "Cc1cc(S(=O)(=O)Oc2ccc3nc(C#N)sc3c2)ccc1[N+](=O)[O-]", "note": "[compound 934-37]", "values": [{"measurement": "light produced with GST A1-1 minus no enzyme, concentrated substrate", "setting": "GST A1-1", "result": "164,400 RLU"}, {"measurement": "light produced with GST A1-1 minus no enzyme, diluted substrate", "setting": "GST A1-1", "result": "195,021 RLU"}, {"measurement": "light produced with GST M1-1 minus no enzyme, concentrated substrate", "setting": "GST M1-1", "result": "41,212 RLU"}, {"measurement": "light produced with GST M1-1 minus no enzyme, diluted substrate", "setting": "GST M1-1", "result": "30,428 RLU"}]}
{"smiles": "Cc1cc(NCc2cccc(N)c2)cc2sc(C#N)nc12", "note": "[compound 3165]", "values": [{"measurement": "utilization by UGT 1A4 (in words)", "setting": "UGT 1A4", "result": "only utilized by UGT 1A4"}, {"measurement": "rate of utilization of compound 3165 by mammalian microsomes (compared with compound 3138)", "setting": "[1]", "result": "much slower"}, {"measurement": "utilization of compound 3165: human liver vs human renal and intestinal microsomes", "setting": "human liver microsomes", "result": "much higher for human liver microsomes than either human renal or human intestinal microsomes"}, {"measurement": "utilization of compound 3165 by rat liver microsomes", "setting": "rat liver microsomes", "result": "Activity was also seen for both rat and mouse liver microsomes"}, {"measurement": "utilization of compound 3165 by mouse liver microsomes", "setting": "mouse liver microsomes", "result": "Activity was also seen for both rat and mouse liver microsomes"}]}
{"smiles": "Cc1cc(S(=O)(=O)Oc2ccc3nc(C4=N[C@@H](C(=O)O)CS4)sc3c2)ccc1[N+](=O)[O-]", "note": "[converted compound 934-37]", "values": [{"measurement": "light produced with GST A1-1 minus no enzyme, concentrated substrate", "setting": "GST A1-1", "result": "6,410 RLU"}, {"measurement": "light produced with GST A1-1 minus no enzyme, diluted substrate", "setting": "GST A1-1", "result": "6,462 RLU"}, {"measurement": "light produced with GST M1-1 minus no enzyme, concentrated substrate", "setting": "GST M1-1", "result": "315,759 RLU"}, {"measurement": "light produced with GST M1-1 minus no enzyme, diluted substrate", "setting": "GST M1-1", "result": "213,920 RLU"}]}
